According to patent publication US20030129193A1 (priority 2001, published 2003):

How the values were obtained:
TNFα = TNFα serum levels in treated animals; format: in vivo, mice; conditions: tTF containing no endotoxin (n=6), any time point
Procedure: Mice were closely observed after treatment for clinical signs of toxicity and clinical status was documented at defined time points (5 minutes, 10 minutes, 15 minutes, 30 minutes, 1 hour, 2 hours, 24 hours, 48 hours, 72 hours). Blood samples were taken from the tail vein at 1 hour, 2 hours and 24 hours to measure TNFα blood levels. Three days after treatment, the mice were anesthetized, blood samples were taken from the vena cava for coagulation tests, and an autopsy was performed to document any changes in gross pathology. Tumors, lymph node metastases and the major normal organs (heart, lung, brain, liver, kidney, colon, spleen, pancreas) were harvested and prepared for histological analysis.
TNFα levels in serum were determined using the Quantikine-M kit (R&D Systems, Minneapolis, Minn.) according to the manufacturer's instructions.

bEnd 3 cells = assay: Cell bound coagulation assay, stimulated endothelial cells; format: cell-based, mouse; conditions: for Factor Xa generation: mix with 0.5 μg/ml factor VIIa; for Factor Xa generation due to Factor VIIa production: mix with 2 μg/ml factor VII and 0.01 μg/ml factor VIIa, factor VII background subtracted
Procedure: To assay the coagulation induction of stimulated versus unstimulated endothelial cells, bEnd 3 cells were seeded in 48 well tissue culture plates at a density of 1×10^4 cells per well and allowed to adhere overnight. Cells were stimulated with endotoxin (0.5 μg/ml and 10 μg/ml) or TNFα (500 U/ml) for 4 h at 37° C. […] After incubation for 45 min at room temperature, cells were washed and incubated with various coagulation factor mixes as follows: (1) 0.5 μg/ml factor VIIa in a mix containing 2.8 μg/ml factor IX, 3.4 μg/ml factor X, 50 μM phospholipids, in calcium buffer (as specified above); (2) 0.01 μg/ml factor VIIa in a mix as in (1); (3) 2 μg/ml factor VII (Calbiochem-Novabiochem, San Diego, Calif.) in a mix as in (1); (4) 2 […] factor VII, 0.01 μg/ml factor VIIa in a mix as in (1). The supernatant of wells was transferred into a 96 well ELISA plate. Substrate S2765 was added and Factor Xa generation measured alongside different concentrations of Factor Xa standard (7 nkatS2222; 0.7 nkatS2222; 0.07 nkatS2222). OD405nm values were calculated as nkatS2222 Factor Xa from the Factor Xa standard curve.
bEnd 3 cells were seeded in 48 well tissue culture plates at a density of 1×10^4 cells per well and allowed to adhere overnight. Cells were stimulated with endotoxin (0.5 μg/ml and 10 μg/ml) or TNFα (500 U/ml) for 4 h at 37° C. […] After incubation for 45 min at room temperature, cells were washed and incubated with coagulation factor mix as follows: 0.5 μg/ml factor VIIa in a mix containing 2.8 μg/ml factor IX, 3.4 μg/ml factor X, 50 μM phospholipids, in calcium buffer; supernatant of wells was transferred into a 96 well ELISA plate. Substrate S2765 was added and Factor Xa generation measured alongside different concentrations of Factor Xa standard (7 nkatS2222; 0,7 nkatS2222; 0,07 nkatS2222). OD405nm values were calculated as nkatS2222 Factor Xa from the Factor Xa standard curve.

## tTF: extracellular domain of the mature Tissue Factor protein (amino acid 1-219)
TNFα
  TNFα serum level: could not be detected
bEnd 3 cells; stimulation with 0.5 μg/ml LPS
  Factor Xa generation: 2.00 nkats2222
  Factor Xa generation due to Factor VIIa production: 3.00 nkats2222
bEnd 3 cells; stimulation with 10 μg/ml LPS
  Factor Xa generation: 2.91 nkats2222
bEnd 3 cells; stimulation with Medium
  Factor Xa generation: 0.40 nkats2222
  Factor Xa generation due to Factor VIIa production: 0.70 nkats2222
bEnd 3 cells; stimulation with TNFα (500 U/ml)
  Factor Xa generation: 0.67 nkats2222
bEnd 3 cells; stimulation with TNFα
  Factor Xa generation due to Factor VIIa production: 1.91 nkats2222
